From patent publication US10000765B2, “Gene encoding cytochrome P450, and use thereof” (NATIONAL INSTITUTE OF AGROBIOLOGICAL SCIENCES, priority 2011, dated 2018)

How the values were obtained:
[1] = tested on: Nipponbare and Kasalath calluses with CYP72A31 overexpression construct; assay: Callus growth test on BS-containing medium, Kasalath CYP72A31 overexpression construct; type: cell-based, Oryza sativa; conditions: medium containing 0.25, 0.5, or 0.75 μM BS
Description: (§1) According to Example 5, an HptII::35Spro::Kasalath CYP72A31::Tnos vector plasmid (pCAMBIA1390-KasCYP72A31, a kasCYP72A31 overexpression construct) or, as a control, an HptII::35Spro::sGFP::Tnos vector plasmid (pCAMBIA1390-sGFP, an sGFP overexpression construct) was introduced into a rice variety (cultivars: Nipponbare and Kasalath) by using an Agrobacterium method. Transformed calluses selected with 50 ppm hygromycin were isolated, and transplanted onto a bispyribac-sodium (BS)-containing medium to examine callus growth.

[2] = tested on: CYP72A31-overexpressing rice (K31-4-6-2); assay: Drug sensitivity test on gellan gum medium, CYP72A31-overexpressing rice; type: in vivo, Oryza sativa; conditions: for CK ratio (%): plant height compared with drug-free medium
Procedure: Next, 1.6 g of Hoagland's mix (Sigma-Aldrich Corporation) and 3 g of Gelrite (Wako Pure Chemical Industries, Ltd.) were suspended in 1 L of distilled water. Then, the mixture was dissolved and heated in a microwave. After that, the mixture was cooled to 50 to 60 degree C., and BS was added at a final concentration of 1 μM. This mixture was dispensed into 30-mL tubular bottles at 15 mL to prepare a gellan gum medium. Next, CSSL rice paddies were soaked in 0.5% sodium hypochlorite for about 20 minutes, and were then washed well with water. These paddies were soaked in distilled water, and kept at 27 degree C. for 3 to 5 days for germination. Germinating seeds were softly planted in sprout-side up on the gellan gum medium. These samples, together with a beaker filled with distilled water, were placed in a transparent case, which was then covered with a clear-plastic wrap. These samples were grown at 27 degree C. under fluorescent light illumination (14 hours of a light period and 10 hours of a dark period) for 7 to 9 days.
According to the method of Example 1, a gellan gum medium containing a test drug at a concentration of 0.01, 0.1, 1, or 10 μM was prepared. Rice seeds were sterilized, germinated, seeded in the medium, and cultivated.

[3] = tested on: Arabidopsis thaliana K33-1-3 and K33-2-4; assay: Growth test in BS-containing medium, Arabidopsis transformed with Kasalath-derived CYP72A33; type: in vivo; conditions: day 10 from onset of cultivation, compared to NT
Description: In this Example, Agrobacterium as prepared in Example 4 was used to introduce HptII::35Spro::Kasalath CYP72A31::Tnos vector plasmid (pCAMBIA1390-KasCYP72A31), HptII::35Spro::Kasalath CYP72A32::Tnos vector plasmid (pCAMBIA1390-KasCYP72A32), or HptII::35Spro::Kasalath CYP72A33::Tnos vector plasmid (pCAMBIA1390-KasCYP72A33) into Arabidopsis thaliana (ecotype: Col-0) by using a floral-dip method. The floral-dip method followed a standard method. […] K31-4-2 and K31-6-5 were selected as fixed lines derived from pCAMBIA1390-KasCYP72A31; K32-1-1, K32-3-1, and K32-5-1 were selected as fixed lines derived from pCAMBIA1390-KasCYP72A32; and K33-1-3 and K33-2-4 were selected as fixed lines derived from pCAMBIA1390-KasCYP72A33. Their seeds were seeded in a medium containing each concentration of BS, and cultivated for 10 days. FIGS. 16A and 16B illustrate the results.
Next, 15 seeds for each of non-transformed Arabidopsis thaliana (NT which is denoted by “Col-0” in FIGS. 19A-19C) and transformed plant bodies (K33-1-3 which is denoted by “K33oe-1-3” in FIGS. 19A-19C and K33-2-4 which is denoted by “K33oe-2-4” in FIGS. 19A-19C) were cultivated on a medium containing each concentration of BS. […]

[4] = tested on: Nipponbare and Kasalath calluses with GFP overexpression construct; assay: Callus growth test on BS-containing medium, GFP overexpression construct; type: cell-based, Oryza sativa; conditions: medium containing 0.25, 0.5, or 0.75 μM BS
Description: as §1

[5] = tested on: Arabidopsis thaliana (K31-4-2) transformed with a Kasalath-derived CYP72A31 gene; assay: Drug sensitivity test on drug-containing MS medium, Arabidopsis thaliana transformed with Kasalath-derived CYP72A31 gene; type: in vivo; conditions: for Ratio of sensitivity: K31-4-2 / NT
Procedure: (§2) A bag of mixed salts for Murashige-Skoog (MS) medium (manufactured by Wako Pure Chemical Industries, Ltd.) 20 g of sucrose, 3 mg of thiamin hydrochloride, 5 mg of nicotinic acid, and 0.5 mg of pyridoxine hydrochloride were dissolved in distilled water, and filled up to 1 L with distilled water. After pH adjustment to 5.8 to 6.3 with 1 M KOH, 3 g of Gelrite was added to the solution, and dissolved using a microwave. After that, the mixture was autoclaved to prepare a sterile MS medium. A test drug was added to this sterile MS medium so as to make a final concentration of 1.3, 4.1, 12, 37, 110, or 330 nM. Arabidopsis thaliana from a sterilized seed was seeded in the drug-containing MS medium, and cultivated at 22° C. for 12 to 14 days in a continuous light period.
(§3) Note that the drugs used in this Example were bispyribac-sodium, pyrithiobac-sodium, pyriminobac, bensulfuron-methyl, penoxsulam, pyrazosulfuron-ethyl, amidosulfuron, imazosulfuron, nicosulfuron, and propyrisulfuron.

[6] = tested on: non-transformed Arabidopsis thaliana (NT); assay: Drug sensitivity test on drug-containing MS medium, non-transformed Arabidopsis thaliana; type: in vivo
Procedure: as §2, §3

COc1cc(OC)nc(Oc2cccc(Oc3nc(OC)cc(OC)n3)c2C(=O)O)n1 [BS, bispyribac sodium]
Callus growth [1]: demonstrated to grow
Resistance of transformed rice to the drug ([2]; Table 4 and FIG. 25): exhibited resistance
Ratio of sensitivity ([2]; maximum drug concentration for CK ratio of 40% or more, K31-4-6-2 / wild-type rice): >100
CK ratio (%) ([2]; K31-4-6-2, drug 0.01 μM): 106%
CK ratio (%) ([2]; K31-4-6-2, drug 0.1 μM): 97%
CK ratio (%) ([2]; K31-4-6-2, drug 1 μM): 103%
CK ratio (%) ([2]; K31-4-6-2, drug 10 μM): 74%
BS sensitivity (germinated seeds, emerging of true leaves, fresh weight of above-ground part) [3]: BS sensitivity equivalent to NT
Callus growth [4]: inhibited their growth
Resistance of transformed Arabidopsis thaliana to the drug ([5]; K31-4-2, Tables 2 and 3, FIGS. 20 to 24): exhibited resistance
Rate of emerging of true leaf (%) ([5]; K31-4-2, drug 1.3 nM, day 12 after seeding): 89%
Rate of emerging of true leaf (%) ([5]; K31-4-2, drug 1.3 nM, day 14 after seeding): 100%
Rate of emerging of true leaf (%) ([5]; K31-4-2, drug 4.1 nM, day 12 after seeding): 100%
Rate of emerging of true leaf (%) ([5]; K31-4-2, drug 4.1 nM, day 14 after seeding): 100%
Rate of emerging of true leaf (%) ([5]; K31-4-2, drug 12 nM, day 12 after seeding): 89%
Rate of emerging of true leaf (%) ([5]; K31-4-2, drug 12 nM, day 14 after seeding): 100%
Rate of emerging of true leaf (%) ([5]; K31-4-2, drug 37 nM, day 12 after seeding): 100%
Rate of emerging of true leaf (%) ([5]; K31-4-2, drug 37 nM, day 14 after seeding): 100%
Rate of emerging of true leaf (%) ([5]; K31-4-2, drug 110 nM, day 12 after seeding): 100%
Rate of emerging of true leaf (%) ([5]; K31-4-2, drug 110 nM, day 14 after seeding): 100%
Rate of emerging of true leaf (%) ([5]; K31-4-2, drug 330 nM, day 12 after seeding): 78%
Rate of emerging of true leaf (%) ([5]; K31-4-2, drug 330 nM, day 14 after seeding): 80%
Ratio of sensitivity ([5]; maximum drug concentration for 40% or more emerging of true leaves, day 12): >28
Ratio of sensitivity ([5]; maximum drug concentration for 80% or more emerging of true leaves, day 14): >80
Rate of emerging of true leaf (%) ([6]; drug 1.3 nM, day 12 after seeding): 44%
Rate of emerging of true leaf (%) ([6]; drug 1.3 nM, day 14 after seeding): 100%
Rate of emerging of true leaf (%) ([6]; drug 4.1 nM, day 12 after seeding): 67%
Rate of emerging of true leaf (%) ([6]; drug 4.1 nM, day 14 after seeding): 100%
Rate of emerging of true leaf (%) ([6]; drug 12 nM, day 12 after seeding): 56%
Rate of emerging of true leaf (%) ([6]; drug 12 nM, day 14 after seeding): 50%
Rate of emerging of true leaf (%) ([6]; drug 37 nM, day 12 after seeding): 0%
Rate of emerging of true leaf (%) ([6]; drug 37 nM, day 14 after seeding): 0%
Rate of emerging of true leaf (%) ([6]; drug 110 nM, day 12 after seeding): 0%
Rate of emerging of true leaf (%) ([6]; drug 110 nM, day 14 after seeding): 0%
Rate of emerging of true leaf (%) ([6]; drug 330 nM, day 12 after seeding): 0%
Rate of emerging of true leaf (%) ([6]; drug 330 nM, day 14 after seeding): 0%
